Data on twelve compounds can be found in BindingDB's records for doi:10.1002/cbdv.201000242 (East China University of Science and Technology, 2011).

Common to all, as to test: Inhibitory Assay
Common to all, as to conditions: pH 6.5

For experiment [1], the target named is Receptor-type tyrosine-protein phosphatase F (Homo sapiens, UniProt P10586). Here is the method:
(§1) Enzymatic activity of enzyme was evaluated using pNPP assay. Briefly, a reaction mixture (100 µL) containing 50 mM MOPS (pH 6.5), 2 mM pNPP and recombinant enzymes was monitored at 405 nm for 2 min at 30 °C.

For experiment [2], the target named is T1, Tyrosine-protein phosphatase non-receptor type 1 (Homo sapiens, UniProt P18031).
T1 sequence (P18031 whole entry): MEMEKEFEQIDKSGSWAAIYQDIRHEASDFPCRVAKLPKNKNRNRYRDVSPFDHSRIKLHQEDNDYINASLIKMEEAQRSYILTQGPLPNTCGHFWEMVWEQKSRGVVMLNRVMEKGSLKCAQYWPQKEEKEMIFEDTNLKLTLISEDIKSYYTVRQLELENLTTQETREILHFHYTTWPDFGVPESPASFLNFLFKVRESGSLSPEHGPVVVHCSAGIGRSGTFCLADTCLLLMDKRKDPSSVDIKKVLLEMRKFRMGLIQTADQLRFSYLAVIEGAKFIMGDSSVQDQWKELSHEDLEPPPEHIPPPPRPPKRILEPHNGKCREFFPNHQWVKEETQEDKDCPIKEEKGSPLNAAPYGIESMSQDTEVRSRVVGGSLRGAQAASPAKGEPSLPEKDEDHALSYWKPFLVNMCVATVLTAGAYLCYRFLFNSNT
Here is the method: as §1

Experiment [3] has as its target T2, Tyrosine-protein phosphatase non-receptor type 11 (Homo sapiens, UniProt Q06124).
T2 sequence (Q06124 whole entry): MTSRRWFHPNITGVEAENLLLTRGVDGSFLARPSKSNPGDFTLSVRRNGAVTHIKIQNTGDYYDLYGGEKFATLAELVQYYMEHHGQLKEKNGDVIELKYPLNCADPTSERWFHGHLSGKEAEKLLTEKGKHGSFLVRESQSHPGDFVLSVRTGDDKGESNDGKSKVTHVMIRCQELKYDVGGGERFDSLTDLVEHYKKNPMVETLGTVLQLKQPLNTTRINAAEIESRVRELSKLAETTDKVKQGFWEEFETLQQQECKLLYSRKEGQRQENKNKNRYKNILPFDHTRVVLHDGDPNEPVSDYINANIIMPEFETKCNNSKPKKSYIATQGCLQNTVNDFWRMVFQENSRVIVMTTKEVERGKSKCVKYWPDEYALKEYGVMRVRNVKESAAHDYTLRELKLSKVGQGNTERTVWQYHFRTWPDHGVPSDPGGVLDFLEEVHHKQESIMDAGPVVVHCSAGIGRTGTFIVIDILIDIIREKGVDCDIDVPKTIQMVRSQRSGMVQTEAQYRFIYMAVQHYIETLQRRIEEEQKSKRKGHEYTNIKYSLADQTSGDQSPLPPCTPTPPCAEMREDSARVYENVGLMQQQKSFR
Here is the method: as §1

The target of experiment [4] is T3, Tyrosine-protein phosphatase non-receptor type 2 (Homo sapiens, UniProt P17706).
T3 sequence (P17706 whole entry): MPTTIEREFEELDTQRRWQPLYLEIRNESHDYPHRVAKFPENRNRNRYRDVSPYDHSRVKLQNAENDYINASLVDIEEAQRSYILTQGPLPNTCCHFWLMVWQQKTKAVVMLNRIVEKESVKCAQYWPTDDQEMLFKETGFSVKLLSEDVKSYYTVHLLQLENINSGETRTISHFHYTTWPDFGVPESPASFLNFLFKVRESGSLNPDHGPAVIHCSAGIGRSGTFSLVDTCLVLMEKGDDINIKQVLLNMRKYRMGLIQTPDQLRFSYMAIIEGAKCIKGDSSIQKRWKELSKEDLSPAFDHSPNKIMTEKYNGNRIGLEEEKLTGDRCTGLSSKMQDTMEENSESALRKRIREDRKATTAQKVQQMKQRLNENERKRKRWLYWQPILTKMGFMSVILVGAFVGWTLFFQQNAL
Here is the method:
as §1

Experiment [5] addresses Tyrosine-protein phosphatase non-receptor type 6 (Homo sapiens, UniProt P29350). Here is the method:
as §1

Where only a bound is given, the exact number is not on record here.

Receptor-type tyrosine-protein phosphatase F, sequence (P10586 whole entry): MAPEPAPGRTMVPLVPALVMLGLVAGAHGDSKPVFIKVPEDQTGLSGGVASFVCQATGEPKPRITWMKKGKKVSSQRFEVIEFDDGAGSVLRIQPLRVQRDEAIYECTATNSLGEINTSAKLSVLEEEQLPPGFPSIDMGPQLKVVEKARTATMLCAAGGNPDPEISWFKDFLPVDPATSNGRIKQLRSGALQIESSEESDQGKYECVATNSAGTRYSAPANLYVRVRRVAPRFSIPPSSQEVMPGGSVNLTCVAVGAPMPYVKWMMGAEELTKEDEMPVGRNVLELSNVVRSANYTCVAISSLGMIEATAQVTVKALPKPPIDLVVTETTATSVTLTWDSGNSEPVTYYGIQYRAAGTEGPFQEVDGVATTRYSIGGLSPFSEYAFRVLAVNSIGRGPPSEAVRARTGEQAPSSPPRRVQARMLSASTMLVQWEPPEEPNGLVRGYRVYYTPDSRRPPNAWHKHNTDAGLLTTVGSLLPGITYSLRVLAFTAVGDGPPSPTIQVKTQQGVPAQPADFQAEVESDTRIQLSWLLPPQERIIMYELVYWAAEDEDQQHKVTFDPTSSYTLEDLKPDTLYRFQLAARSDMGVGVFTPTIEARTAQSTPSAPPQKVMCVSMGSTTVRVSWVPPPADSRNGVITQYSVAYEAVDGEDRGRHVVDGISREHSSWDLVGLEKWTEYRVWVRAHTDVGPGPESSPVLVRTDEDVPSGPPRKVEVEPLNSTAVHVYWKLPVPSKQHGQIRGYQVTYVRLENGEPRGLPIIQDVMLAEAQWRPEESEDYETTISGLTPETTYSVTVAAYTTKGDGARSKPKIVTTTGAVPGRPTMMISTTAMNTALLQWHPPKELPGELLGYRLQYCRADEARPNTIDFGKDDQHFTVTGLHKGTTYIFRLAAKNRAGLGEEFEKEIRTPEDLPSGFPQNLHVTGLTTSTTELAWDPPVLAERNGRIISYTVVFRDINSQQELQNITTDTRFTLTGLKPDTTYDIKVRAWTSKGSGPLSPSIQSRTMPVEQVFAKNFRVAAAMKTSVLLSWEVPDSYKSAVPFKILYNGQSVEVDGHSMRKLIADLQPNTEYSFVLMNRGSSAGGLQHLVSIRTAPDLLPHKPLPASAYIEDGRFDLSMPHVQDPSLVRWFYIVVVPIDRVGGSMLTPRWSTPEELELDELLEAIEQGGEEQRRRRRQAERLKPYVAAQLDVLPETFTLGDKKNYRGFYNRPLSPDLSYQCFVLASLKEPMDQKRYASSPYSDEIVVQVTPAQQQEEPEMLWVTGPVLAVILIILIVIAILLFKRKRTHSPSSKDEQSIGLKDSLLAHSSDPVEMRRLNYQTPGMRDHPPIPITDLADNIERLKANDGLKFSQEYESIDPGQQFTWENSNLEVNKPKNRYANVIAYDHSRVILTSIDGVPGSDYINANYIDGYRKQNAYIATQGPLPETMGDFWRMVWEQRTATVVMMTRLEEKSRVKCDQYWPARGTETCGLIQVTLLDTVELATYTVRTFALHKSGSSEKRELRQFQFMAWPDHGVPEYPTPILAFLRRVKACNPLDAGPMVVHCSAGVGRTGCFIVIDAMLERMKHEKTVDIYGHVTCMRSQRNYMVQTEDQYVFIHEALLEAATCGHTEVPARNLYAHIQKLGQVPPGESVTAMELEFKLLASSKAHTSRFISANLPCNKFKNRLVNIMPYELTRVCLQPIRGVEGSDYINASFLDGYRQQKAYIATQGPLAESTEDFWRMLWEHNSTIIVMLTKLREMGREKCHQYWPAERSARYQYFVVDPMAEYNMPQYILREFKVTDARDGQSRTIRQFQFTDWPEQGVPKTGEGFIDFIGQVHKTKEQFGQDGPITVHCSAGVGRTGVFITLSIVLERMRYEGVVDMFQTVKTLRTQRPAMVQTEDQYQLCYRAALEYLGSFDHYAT
Tyrosine-protein phosphatase non-receptor type 6, sequence (P29350 whole entry): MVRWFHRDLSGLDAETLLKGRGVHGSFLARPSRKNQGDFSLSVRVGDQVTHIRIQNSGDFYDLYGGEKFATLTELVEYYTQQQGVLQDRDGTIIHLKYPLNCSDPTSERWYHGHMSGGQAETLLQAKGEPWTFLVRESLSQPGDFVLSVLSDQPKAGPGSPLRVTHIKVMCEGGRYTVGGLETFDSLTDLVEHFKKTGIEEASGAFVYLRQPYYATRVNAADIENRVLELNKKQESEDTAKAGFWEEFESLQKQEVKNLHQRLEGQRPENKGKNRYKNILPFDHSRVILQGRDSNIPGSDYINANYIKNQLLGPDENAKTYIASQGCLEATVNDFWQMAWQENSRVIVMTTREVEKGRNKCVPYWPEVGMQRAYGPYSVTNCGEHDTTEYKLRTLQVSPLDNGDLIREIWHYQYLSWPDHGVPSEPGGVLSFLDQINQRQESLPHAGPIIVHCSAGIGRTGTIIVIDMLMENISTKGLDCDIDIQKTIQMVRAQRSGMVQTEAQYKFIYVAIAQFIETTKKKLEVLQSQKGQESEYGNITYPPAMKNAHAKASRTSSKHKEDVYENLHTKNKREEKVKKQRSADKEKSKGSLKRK

With `COc1nc(NCc2cn(C[C@H]3O[C@H](OC)[C@H](OCc4ccccc4)[C@@H](OCc4ccccc4)[C@@H]3OCc3ccccc3)nn2)nc2c1ncn2Cc1cn(C[C@H]2O[C@H](OC)[C@H](OCc3ccccc3)[C@@H](OCc3ccccc3)[C@@H]2OCc2ccccc2)nn1` [6-Methoxy-N,9-bis[(1-{[(2R,3R,4S,5R,6S)-3,4,5-tris(benzyloxy)-tetrahydro-6-methoxy-2H-pyran-2-yl]methyl}-1H-1,2,3-triazol-4-yl)methyl]-9H-purin-2-amine (15)], the IC50 in experiment [1] is above 80 µM; in experiment [2] it was 7.9 µM; in experiment [3], above 80 µM; in experiment [4], 16.2 µM; in experiment [5], above 80 µM.

Take `CO[C@H]1O[C@H](Cn2cc(Cn3cnc4c(Cl)nc(N)nc43)nn2)[C@H](OCc2ccccc2)[C@H](OCc2ccccc2)[C@H]1OCc1ccccc1` [Methyl 6-{4-[(2-Amino-6-chloro-9H-purin-9-yl)methyl]-1H-1,2,3-triazol-1-yl}-2,3,4-tri-O-benzyl-6-deoxy-a-d-galactopyranoside (10)]: the IC50 in experiment [1] was above 80 µM; in experiment [2], 11.1 µM; in experiment [3], above 80 µM; in experiment [4] it was 53.6 µM; in experiment [5], above 80 µM.

Take `COc1nc(N)nc2c1ncn2Cc1cn(C[C@H]2O[C@H](OC)[C@H](OCc3ccccc3)[C@@H](OCc3ccccc3)[C@H]2OCc2ccccc2)nn1` [Methyl 6-{4-[(2-Amino-6-methoxy-9H-purin-9-yl)methyl]-1H-1,2,3-triazol-1-yl}-2,3,4-tri-O-benzyl-6-deoxy-a-d-galactopyranoside (12)]: the IC50 in experiment [1], in experiment [2], in experiment [3], in experiment [4] and in experiment [5] was above 80 µM each time.

Take `C#CCNc1nc(Cl)c2ncn(CC#C)c2n1` [6-Chloro-N,9-di(prop-2-yn-1-yl)-9H-purin-2-amine (3)]: the IC50 in experiment [1] was above 80 µM; in experiment [2], 75.7 µM; in experiment [3], above 80 µM; in experiment [4], above 80 µM; in experiment [5] it was above 80 µM.

As for `CO[C@H]1O[C@H](Cn2cc(CNc3nc(Cl)c4ncn(Cc5cn(C[C@H]6O[C@H](OC)[C@H](OCc7ccccc7)[C@@H](OCc7ccccc7)[C@H]6OCc6ccccc6)nn5)c4n3)nn2)[C@H](OCc2ccccc2)[C@H](OCc2ccccc2)[C@H]1OCc1ccccc1` [6-Chloro-N,9-bis[(1-{[(2R,3S,4S,5R,6S)-3,4,5-tris(benzyloxy)-tetrahydro-6-methoxy-2H-pyran-2-yl]methyl}-1H-1,2,3-triazol-4-yl)methyl]-9H-purin-2-amine (14)], the IC50 in experiment [1] is above 80 µM; in experiment [2] it was 3.2 µM; in experiment [3], above 80 µM; in experiment [4], 18 µM; in experiment [5] it was above 80 µM.

`COc1nc(N)nc2c1ncn2Cc1cn(C[C@H]2O[C@H](OC)[C@H](OCc3ccccc3)[C@@H](OCc3ccccc3)[C@@H]2OCc2ccccc2)nn1` [Methyl 6-{4-[(2-Amino-6-methoxy-9H-purin-9-yl)methyl]-1H-1,2,3-triazol-1-yl}-2,3,4-tri-O-benzyl-6-deoxy-a-d-glucopyranoside (11)]: the IC50 in experiment [1], in experiment [2], in experiment [3], in experiment [4] and in experiment [5] was above 80 µM each time.

Turning to `CC(=O)OC[C@H]1O[C@H](n2cc(Cn3cnc4c(Cl)nc(N)nc43)nn2)[C@H](OC(C)=O)[C@@H](OC(C)=O)[C@@H]1OC(C)=O` [2-Amino-6-chloro-9-{[1-(2,3,4,6-tetra-O-acetyl-b-d-glucopyranosyl)-1H-1,2,3-triazol-4-yl]methyl}-9H-purine (7)], the IC50 in experiment [1], in experiment [2], in experiment [3], in experiment [4] and in experiment [5] was above 80 µM each time.

With `CC(=O)OC[C@H]1O[C@H](n2cc(CNc3nc(Cl)c4ncn(Cc5cn([C@H]6O[C@H](COC(C)=O)[C@@H](OC(C)=O)[C@H](OC(C)=O)[C@H]6OC(C)=O)nn5)c4n3)nn2)[C@H](OC(C)=O)[C@@H](OC(C)=O)[C@@H]1OC(C)=O` [6-Chloro-9-{[1-(2,3,4,6-tetra-O-acetyl-b-d-glucopyranosyl)-1H-1,2,3-triazol-4-yl]methyl}-2-({[1-(2,3,4,6-tetra-O-acetyl-b-d-glucopyranosyl)-1H-1,2,3-triazol-4-yl]methyl}amino)-9H-purine (8)], the IC50 in experiment [1], in experiment [2], in experiment [3], in experiment [4] and in experiment [5] was above 80 µM each time.

For the compound `CO[C@H]1O[C@H](Cn2cc(CNc3nc(Cl)c4ncn(Cc5cn(C[C@H]6O[C@H](OC)[C@H](OCc7ccccc7)[C@@H](OCc7ccccc7)[C@@H]6OCc6ccccc6)nn5)c4n3)nn2)[C@@H](OCc2ccccc2)[C@H](OCc2ccccc2)[C@H]1OCc1ccccc1` [6-Chloro-N,9-bis[(1-{[(2R,3R,4S,5R,6S)-3,4,5-tris(benzyloxy)-tetrahydro-6-methoxy-2H-pyran-2-yl]methyl}-1H-1,2,3-triazol-4-yl)methyl]-9H-purin-2-amine (13)], the IC50 in experiment [1] is above 80 µM; in experiment [2], 2.2 µM; in experiment [3] it was above 80 µM; in experiment [4] it was 11 µM; in experiment [5] it was above 80 µM.

On to `CO[C@H]1O[C@H](Cn2cc(Cn3cnc4c(Cl)nc(N)nc43)nn2)[C@@H](OCc2ccccc2)[C@H](OCc2ccccc2)[C@H]1OCc1ccccc1` [Methyl 6-{4-[(2-Amino-6-chloro-9H-purin-9-yl)methyl]-1H-1,2,3-triazol-1-yl}-2,3,4-tri-O-benzyl-6-deoxy-a-d-glucopyranoside (9)], for which the IC50 is above 80 µM in experiment [1]; 7.2 µM in experiment [2]; above 80 µM in experiment [3]; 29.9 µM in experiment [4]; above 80 µM in experiment [5].

In the case of `COc1nc(NCc2cn(C[C@H]3O[C@H](OC)[C@H](OCc4ccccc4)[C@@H](OCc4ccccc4)[C@H]3OCc3ccccc3)nn2)nc2c1ncn2Cc1cn(C[C@H]2O[C@H](OC)[C@H](OCc3ccccc3)[C@@H](OCc3ccccc3)[C@H]2OCc2ccccc2)nn1` [6-Methoxy-N,9-bis[ (1-{[(2R,3S,4S,5R,6S)-3,4,5-tris(benzyloxy)-tetrahydro-6-methoxy-2H-pyran-2-yl]methyl}-1H-1,2,3-triazol-4-yl)methyl]-9H-purin-2-amine (16)], the IC50 in experiment [1] is above 80 µM; in experiment [2] it was 1.5 µM; in experiment [3], 35.7 µM; in experiment [4], 2.9 µM; in experiment [5] it was 24.9 µM.

With `C#CCn1cnc2c(Cl)nc(N)nc21` [6-Chloro-9-(prop-2-yn-1-yl)-9H-purin-2-amine (2)], the IC50 is above 80 µM in experiment [1]; 232 µM in experiment [2]; above 80 µM in experiment [3]; above 80 µM in experiment [4]; above 80 µM in experiment [5].
